According to US12083106B2, “Methods of using a pharmaceutical composition containing pirfenidone in sustained-release tablet form” (Excalibur Pharmaceuticals, Inc., priority 2011, dated 2024):

What was measured:
[1] = Pirfenidone bioavailability study in healthy volunteers; format: in vivo, human; conditions: 600 mg sustained-release tablet form; 11 healthy volunteers
Method: Pirfenidone Bioavailability Study in Healthy Volunteers According to the Pharmacopoeia Standards
Said analyses were performed by a laboratory authorized by the Mexican Health Secretariat (Data not shown).
Maximum concentration data evidenced that the bioavailability is extrapolated to other lower concentrations, i.e., 100, 200 or 400 mg.

TNF-α [2] = experiment: TNF-α serum levels in animals with chronic hepatic damage by CCl4 (ELISA); format: in vivo; conditions: treated vs not treated
TGF-β1 [3] = experiment: TGF-β1 serum levels in female rats with silicone implants in mammary glands (ELISA); format: in vivo; conditions: daily oral regimen during 21 days; extended release formula before conversion into tablets
Method: (§1) TGF-β1 serum levels determination in female rats submitted to the placement of silicone implants in mammary glands for inducing contracture development are shown in FIG. 5. The animals were administered a daily regimen of oral Pirfenidone during 21 days. […] TGF-β1 levels were determined through a commercial ELISA kit.

[4] = tested on: breast capsular contracture; experiment: Pilot open prospective study in patients with breast capsular contracture (Baker scale, echosonography); format: in vivo, human; conditions: for Implant fibrous capsule ILQ thickness, mean: Inner Lower Quadrant; for Implant fibrous capsule IUQ thickness, mean: Inner Upper Quadrant; for Implant fibrous capsule OLQ thickness, mean: Outer Lower Quadrant; for Implant fibrous capsule OUQ thickness, mean: Outer Upper Quadrant
Method: It is a pilot, open, prospective, longitudinal and analytical essay in which 17 patients diagnosed with an important breast capsular contracture (Grade III and Grade IV, Baker Scale) were treated with Pirfenidone 600 mg administered orally as sustained-release tablets three times per day (every 8 hours) during six months. A blood sample was taken from each patient in order to determine the genetic markers (TGF-β1). […], three Breast echosonographies were made, one at the beginning, the other at the end of the treatment (6 months) and the last one 6 months after the suspension of Pirfenidone treatment (12 months). Two parameters were evaluated: antero-posterior diameter and capsular thickness in all its quadrants (contrasting thickness measurements with the radiological parameters established by Tomas Stavros, 2006 and the radiological clinical correlation of thickness vs Baker Scale established by Alon Zahavi M D, 2006 for the diagnosis of Capsular Contracture). Free liquid in the capsule was looked for, as well as retraction or rupture signs through 5-12 MHz linear or curve transductors. During 12 months, a Breast Clinical Evaluation was also conducted on a monthly basis using Baker Classification. Deformation, texture through palpation and sensitivity were evaluated. A registration of each evaluation was made with digital photographs. The clinical and radiological changes of each breast were evaluated by a plastic surgeon and a qualified radiologist. The statistical analysis included 20 cases, taking into account that 3 patients presented bilateral capsular contracture of different grade in each breast; a total of 20 breasts were analyzed. Finally, the statistical analysis of the ordinal scale variables was conducted with means and ranges; and for the contrasts, Wilcoxon matched-pairs signed-ranks and Chi^2 were used. With regard to the Ratio Interval variables, the mean and standard deviation were used; and for the contrast, Student's t test for paired samples was used in which a case is compared against another case.

[5] = renal failure patients treated with hemodialysis; cited from earlier work
[6] = tested on: fibrosis in the mammary capsule; conditions: administered orally; female rats with silicone implants; cited from earlier work
TGF-β1 [7] = experiment: TGF-β1 serum levels in animals with chronic hepatic damage by CCl4 (ELISA); format: in vivo; conditions: treated vs not treated
hepatic fibrosis = conditions: patients with hepatic fibrosis; expanded study; cited from earlier work
[8] = tested on: progressive renal disease; conditions: animal models; cited from earlier work
TNF-α [9] = experiment: TNF-α serum levels in female rats with silicone implants in mammary glands (ELISA); format: in vivo; conditions: daily oral regimen during 21 days; extended release formula before conversion into tablets
Method: as §1, with “TNF-α” for “TGF-β1”, “6.” for “5.”, “animals” for “animals were”

[10] = tested on: chronic renal failure secondary to primary nephropathy; experiment: Prospective, open label, 12-month clinical trial in patients with primary nephropathy with renal damage; format: in vivo, human; conditions: oral sustained-release tablets every 12 hours, 12 months
Method: The present study is a prospective, open label, 12-month clinical trial including 30 patients with primary nephropathy, with renal damage (stages 1 to 4 of the KDIGO Classification) between 10 and 40 years of age, from both sexes. […] Said evaluation phase was useful so that the patient could become his/her own control. All of the patients received oral Pirfenidone (in sustained-release tablet form) administered every 12 hours containing 2400 mg/1.73 m^2 BSA, equivalent to […].; besides, they also received a conventional treatment appropriate for primary nephropathy and CRF, such as antihypertensives, alpha-ketoanalogues, phosphate chelating agents, angiotensin II antagonist, low-protein diet, etc. […] Two Doppler ultrasonographic studies were performed on each patient at the beginning of the study and at 12 months. Drug adverse events were evaluated and the loss of renal function and loss percentage were quantified. The use of Pirfenidone in renal function was monitored through cystatin C, plasma reciprocal creatinine and creatinine clearance in 24-hour urine collection.

[11] = tested on: focal segmental glomerulosclerosis; conditions: nephrotic syndrome and focal segmental glomerulosclerosis; cited from earlier work
[12] = Initial (before treatment), 20 cases

time till which bioavailability is prolonged [1]: 12 h
SMILES: Cc1ccc(=O)n(-c2ccccc2)c1 [Pirfenidone, 5-methyl-1-phenyl-2-(1H)-pyridone]
TNF-α serum level (FIG. 6) (TNF-α [2]): lower TNF-α serum level
action on TGF-β production (TGF-β1 serum levels, FIG. 5) (TGF-β1 [3]): extremely potent and selective inhibiting action
change of breast capsular contracture grade, all cases ([4]; 600 mg SR tablets orally three times per day, six months, 20 cases): reduction of breast capsular contracture grade
cases with relapse of capsular contracture (WCSECC to grade III) ([4]; 6-month follow up after Pirfenidone discontinuation, 1 case grade IV, use of steroids and excessive exercise): 5%
number of cases WCSECC (Without Clinical or Sonographic Evidence of Capsular Contracture) ([4]; 6 Months (end of treatment, 600 mg SR tablets three times per day), 20 cases): 10 cases
number of cases with contracture grade I (Baker Scale) ([4]; 6 Months, 20 cases): 5 cases
number of cases with contracture grade III (Baker Scale) ([4]; 6 Months, 20 cases): 5 cases
patients with side effects (stomach aches, fatigue, skin dermatosis, photosensitivity) ([4]; 6 of 17 patients): 35%
mean duration of side effects ([4]; 6 patients with side effects): 10.8 days
BAKER SCALE Mean ([4]; 12-month follow-up, n = 20, P 0.0001 vs beginning): 0.5
number of cases WCSECC ([4]; 12 months (6 months after suspension of treatment), 20 cases): 14 cases
number of cases with contracture grade II (Baker Scale) ([4]; 12 months, 20 cases): 1 cases
number of cases with contracture grade III (Baker Scale) ([4]; 12 months, 20 cases): 5 cases
BAKER SCALE Mean (Range) ([4]; Beginning of the study, n = 20): 4 (3-4)
Implant fibrous capsule ILQ thickness, mean ([4]; Beginning): 1.86 centimeters
Implant fibrous capsule IUQ thickness, mean ([4]; Beginning): 1.6 centimeters
Implant fibrous capsule OLQ thickness, mean ([4]; Beginning): 1.775 centimeters
Implant fibrous capsule OUQ thickness, mean ([4]; Beginning): 1.505 centimeters
Implant fibrous capsule ILQ thickness, mean ([4]; End): 1.115 centimeters
Implant fibrous capsule IUQ thickness, mean ([4]; End): 1.19 centimeters
Implant fibrous capsule OLQ thickness, mean ([4]; End): 1.185 centimeters
Implant fibrous capsule OUQ thickness, mean ([4]; End): 1.18 centimeters
number of cases with contracture grade III (Baker Scale) [4, 12]: 9 cases
number of cases with contracture grade IV (Baker Scale) [4, 12]: 11 cases
breast capsular contracture evolution, Baker scale (FIG. 1) ([4]; all the cases, after PFD administration): important improvement
Initial AP Diameter of the breast implant, mean ([4]; echographically measured at the beginning (before treatment)): 7.57 centimeters
AP Diameter at 12 months, mean ([4]; echographically measured, P = N.S. vs 6 months): 6.085 centimeters
AP Diameter at 6 months, mean ([4]; echographically measured, P ≤ .001 vs beginning): 6.425 centimeters
cases with gradual reduction of antero-posterior diameter (APD) and capsule thickness ([4]; echographies at 6 and 12 months, 19 cases): 95%
cases showing retraction data and light subcapsular liquid ([4]; end of the study, group that passed from grade IV to grade III, two cases): 10%
contracture state of left breast, single patient (FIG. 2) ([4]; initially grade III, after six-month PFD administration): Not Detectable by Ultrasound or Clinical Examination
contracture state of both breasts, single patient (FIG. 3) ([4]; initially grade IV, end of the protocol): Capsular Contracture Not Detectable by Ultrasound or Clinical Examination
cases reduced from grade IV to grade II ([4]; of 20 cases (1 case)): 5%
cases initially grade IV that concluded WCSECC ([4]; of 20 cases (5 cases)): 25%
cases reduced from grade IV to grade III ([4]; of 20 cases (5 cases)): 25%
cases initially grade III that concluded WCSECC ([4]; of 20 cases (9 cases)): 45%
cases concluded Without Clinical or Sonographic Evidence of Capsular Contracture (WCSECC) ([4]; of 20 cases (n=14)): 70%
cases of relapse (FIG. 1) ([4]; six-month follow-up): one
relapse, single patient (FIG. 2) ([4]; six-month follow-up): lack of relapse
need to adjust dose in patients with renal damage (pharmacokinetics) [5]: not necessary to adjust the pirfenidone dose
tolerability in patients with Terminal Chronic Renal Failure (TCRF) [5]: well tolerated
development of fibrosis in the mammary capsule [6]: prevents the development of the characteristic fibrosis
TGF-β1 serum level (FIG. 5) (TGF-β1 [7]): lower TGF-β1 serum level
effects evidenced through hepatic biopsy (hepatic fibrosis): beneficial effects
TGF-β expression [8]: reduces TGF-β expression
development of progressive renal disease [8]: Can prevent the development of progressive renal disease
growth, development and toxic effects in treated animals [8]: grew and developed normally and without toxic effects
proteinuria levels [8]: Reduces proteinuria levels
renal function / collagen accumulation in the renal cortex [8]: Improves renal function reducing collagen accumulation in the renal cortex
urea nitrogen and serum creatinine levels [8]: Reduces urea nitrogen and serum creatinine levels
action on TNF-α (TNF-α serum levels, FIG. 6) (TNF-α [9]): extremely potent and selective TNF-α inhibiting action
renal damage progression rate ([10]; 2400 mg/1.73 m^2 BSA, phases 1-4 KDIGO): influenced positively
drug side-effects in patients with primary nephropathy [10]: limited to a minimum percentage of patients and disappeared rapidly
effect on proteinuria [10]: beneficial effect
histological damage to the affected kidneys (comparative ultrasonographic changes, beginning vs end of treatment) [10]: detains the histological damage
delay of renal function impairment [11]: favorable results
